Six compounds from patent publication US20100151508A1, “COMPOUNDS” (THE ROBERT GORDON UNIVERSITY, priority 2006, published 2010) can be followed below.

The nature of data set [1]: Fluorescence emission of myricetin derivatives (fluorimetry). The class given is physicochemical. The note with it: 2.5 μM in ethanol (KB861 in THF); for λmax (nm): fluorescence emission. How it is done:
All the KBX compounds and Myricetin were prepared for analysis of their fluorescent properties (Table 1) using ethanol as the solvent, with the exception of KB861 which used tetrahydrofuran (THF). All measurements were taken at a compound concentration of 2.5 μM.

For data set [2], the system named is Caco-2 cells. The data set is described as follows: Probe fluorescence in menadione stressed versus healthy Caco-2 cells (fluorescence microscopy). The following applies: for Effect of menadione concentration on intracellular fluorescence: Caco-2, 1, 10 and 20 μM menadione; for Decrease in fluorescence in stressed cells compared to healthy cells: confluent Caco-2, menadione stress, 20 μM probe; for Fluorescence in menadione exposed cultures relative to control non-stressed cultures: pre-confluent, proliferating Caco-2 cultures. The class given is cell-based, human. How it is done: Initially, confluent Caco-2 cells were placed under stress using menadione then incubated with 20 μM KB861 for 30 minutes. The fluorescence of KB861 in stressed cells was then compared to that of KB861 in healthy cells using fluorescence microscopy (FIG. 5).
Confluent Caco-2 cells were placed under stress using Menadione then incubated with 20 μM KB474 for 1 minute (FIG. 6) and 15 minutes (FIG. 7). The fluorescence of the compound in the stressed cells was then compared to its fluorescence in healthy Caco-2 cells.
Pre-confluent, proliferating Caco-2 cultures were also exposed to menadione prior to staining with KB861 or KB474.
The effect of menadione concentration on the intracellular fluorescence of compound KB861 and KB474 was also investigated.

In data set [3] the test system is Caco-2 cells. The data set is described as follows: Probe fluorescence in Caco-2 cells after glutathione depletion by BSO. The following applies: Caco-2, glutathione depleted by progressive BSO exposure. The class given is cell-based, human. From the text: To examine probe sensitivity to a less severe, more gradually provoked physiological oxidative stress within Caco-2 cells, cellular glutathione was depleted by progressive buthionine sulphoximine (BSO) exposure.

A short description of data set [4]: In vitro oxidation of KB861 solutions, analysed by fluorimetry. The class given is physicochemical. How it is done: A series of K5861 solutions (0.5, 1.0, and 1.5 μM) were prepared using THF. […] Another series of KB861 solutions of the same concentrations were prepared and analysed by fluorimetry in their natural unoxidised state (Graph 1).

In the case of `O=c1c(O)c(-c2ccc(O)c(O)c2O)oc2ccccc12` [AOX558], in data set [1], the Emission intensity stood at 0.166 and the “λmax (nm)” value amounted to 457.1 nm.
For the compound `CCc1ccc2c(=O)c(O)c(-c3cc(O)c(O)c(O)c3)oc2c1` [KB474, 7-ethyl-3-hydroxy-2-(3,4,5-trihydroxyphenyl)-4H-1-benzopyran-4-one], in the data set with Caco-2 cells [2], the “Effect of menadione concentration on intracellular fluorescence” value is recorded as “dose dependent decrease” and the “Fluorescence in menadione exposed cultures relative to control non-stressed cultures” value is on record as “dramatically decreased”. Moreover, in the data set with Caco-2 cells [2] (1 minute and 15 minutes), the “Decrease in fluorescence in stressed cells compared to healthy cells” value is “at least 75%”. In data set [1], the Emission intensity worked out at 321.113 and the “λmax (nm)” value is 504.9 nm. Also, the “Fluorescence emission after BSO exposure” value in the data set with Caco-2 cells [3] is recorded as “striking decrease”.
Consider `CCCCCCCCCCc1ccc2c(=O)c(O)c(-c3cc(O)c(O)cc3O)oc2c1` [AOX166], for which, in data set [1], the Emission intensity is recorded as 0.286 and the “λmax (nm)” value was 514.1 nm.
The matching figures for `O=c1c(O)c(-c2cc(O)c(O)c(O)c2)oc2cc(O)cc(O)c12` [Myricetin, 3,5,7-trihydroxy-2-(3,4,5-trihydroxyphenyl)-4H-1-benzopyran-4-one, reference compound]: 17.419 and 499.5 nm.
With `O=c1c(O)c(-c2cc(O)c(O)cc2O)oc2ccccc12` [AOX563], in data set [1], the Emission intensity was 0.199 and the “λmax (nm)” value stood at 517.0 nm.
Take `CCCCCCCCCCc1ccc2c(=O)c(O)c(-c3cc(O)c(O)c(O)c3)oc2c1` [KB861, 7-decyl-3-hydroxy-2-(3,4,5-trihydroxyphenyl)-4H-1-benzopyran-4-one]: in data set [4] (0.5, 1.0, 1.5 μM in THF), the “Fluorescence emission at 540 nm, natural unoxidised state” value is recorded as “highly fluorescent”. Also, the “Fluorescence emission at 540 nm after oxidation” value in data set [4] (0.5, 1.0, 1.5 μM in THF, oxidised by excess AgO) is on record as “almost completely disappears”. The “Fluorescence on exposure to hydrogen peroxide” value in data set [4] (hydrogen peroxide as stated) is “diminished”. Moreover, in the data set on Caco-2 cells [2], the “Effect of menadione concentration on intracellular fluorescence” value is “correlated with the concentration of menadione exposure” and the “Fluorescence in menadione exposed cultures relative to control non-stressed cultures” value is “dramatically decreased”. Further, in the data set with Caco-2 cells [2] (30 minutes), the “Decrease in fluorescence in stressed cells compared to healthy cells” value is 30-40%. Also, in data set [1], the Emission intensity is 664.669 and the “λmax (nm)” value stood at 544.7 nm. The “Fluorescence emission after BSO exposure” value in the data set with Caco-2 cells [3] is “striking decrease”.
